Article PMC7237647, “Synthesis, in vitro and in vivo evaluation of ^11C-O-methylated arylpiperazines as potential serotonin 1A (5-HT1A) receptor antagonist radiotracers” (EJNMMI Radiopharmacy and Chemistry, 2020)

How the values were obtained:
[1] = target: T1, 5-HT1B (Homo sapiens, UniProt P28222); assay: NIMH-PDSP radioligand binding assay, 5-HT1B
T1 construct: NIMH-PDSP
Protocol: (§1) . Cross selectivity for biogenic amines, neurotransmitter receptors, and transporters were determined by radioligand binding assays through NIMH- PDSP using validated and established protocols ([NIMH-PDSP Assay Protocol Book Version III, March 2018]).

[2] = target: NMDA; assay: NIMH-PDSP radioligand binding assay, NMDA
[3] = target: DAT (Homo sapiens, UniProt Q01959); assay: NIMH-PDSP radioligand binding assay, DAT
DAT, sequence (Q01959 whole entry, species assumed): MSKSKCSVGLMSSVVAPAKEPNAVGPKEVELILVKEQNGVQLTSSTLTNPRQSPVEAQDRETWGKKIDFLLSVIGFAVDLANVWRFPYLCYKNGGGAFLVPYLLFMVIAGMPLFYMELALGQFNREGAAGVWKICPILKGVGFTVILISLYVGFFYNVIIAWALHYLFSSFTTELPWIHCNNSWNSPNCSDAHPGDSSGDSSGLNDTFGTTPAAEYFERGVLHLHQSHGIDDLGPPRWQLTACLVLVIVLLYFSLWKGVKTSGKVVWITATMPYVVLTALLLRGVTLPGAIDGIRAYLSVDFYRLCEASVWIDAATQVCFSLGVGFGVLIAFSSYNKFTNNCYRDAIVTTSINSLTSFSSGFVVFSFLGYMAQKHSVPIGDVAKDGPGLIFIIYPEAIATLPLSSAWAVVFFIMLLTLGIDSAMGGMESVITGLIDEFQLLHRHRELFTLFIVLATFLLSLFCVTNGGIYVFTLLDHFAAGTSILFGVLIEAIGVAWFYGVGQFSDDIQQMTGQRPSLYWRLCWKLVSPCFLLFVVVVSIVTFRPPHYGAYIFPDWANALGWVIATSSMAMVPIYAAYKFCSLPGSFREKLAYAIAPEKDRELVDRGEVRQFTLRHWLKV
Protocol: as §1

[4] = target: T2, 5-HT2A (Homo sapiens, UniProt P28223); set-up: method as in ref Fiorino et al. [2012]; Fiorino et al. [2016]; Fiorino et al. [2017]; details: previous preliminary pharmacological screening; ref Fiorino et al. [2012]; Fiorino et al. [2016]; Fiorino et al. [2017]; cited from earlier work
T2 construct: NIMH-PDSP

[5] = target: T3, 5-HT4 (Homo sapiens, UniProt Q13639); assay: NIMH-PDSP radioligand binding assay, 5-HT4
T3 construct: NIMH-PDSP
T3 sequence (Q13639 whole entry, species assumed): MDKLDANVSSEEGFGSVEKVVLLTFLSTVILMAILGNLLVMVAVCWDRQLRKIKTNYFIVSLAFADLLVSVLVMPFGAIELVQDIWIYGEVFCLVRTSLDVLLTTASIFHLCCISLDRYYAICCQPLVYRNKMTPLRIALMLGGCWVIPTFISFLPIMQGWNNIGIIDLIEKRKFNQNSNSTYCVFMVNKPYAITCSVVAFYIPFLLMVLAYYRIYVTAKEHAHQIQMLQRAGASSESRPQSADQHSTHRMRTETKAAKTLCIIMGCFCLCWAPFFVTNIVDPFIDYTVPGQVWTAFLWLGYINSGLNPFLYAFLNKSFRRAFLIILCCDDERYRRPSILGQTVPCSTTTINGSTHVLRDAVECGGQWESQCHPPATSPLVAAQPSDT
Protocol: as §1

[6] = target: T4, 5-HT2B (Homo sapiens, UniProt P41595); assay: NIMH-PDSP radioligand binding assay, 5-HT2B
T4 construct: NIMH-PDSP
Protocol: as §1

[7] = target: AMPA; assay: NIMH-PDSP radioligand binding assay, AMPA
[8] = target: T5, 5-HT1D (Homo sapiens, UniProt P28221); assay: NIMH-PDSP radioligand binding assay, 5-HT1D
T5 construct: NIMH-PDSP
Protocol: as §1

[9] = target: T6, 5-HT1A receptor (Homo sapiens, UniProt P08908); assay: Competition binding with [^3H]WAY100635 at 5-HT1A receptors (NIMH-PDSP); details: for Ki: competition with [^3H]WAY100635, 12 concentrations (10 μM to 1 pM), triplicate, cells expressing 5-HT1A receptor; for Binding affinity ratios of 5-HT1A and α1-adrenergic receptors: in vitro Ki ratio
T6 sequence (P08908 1-422): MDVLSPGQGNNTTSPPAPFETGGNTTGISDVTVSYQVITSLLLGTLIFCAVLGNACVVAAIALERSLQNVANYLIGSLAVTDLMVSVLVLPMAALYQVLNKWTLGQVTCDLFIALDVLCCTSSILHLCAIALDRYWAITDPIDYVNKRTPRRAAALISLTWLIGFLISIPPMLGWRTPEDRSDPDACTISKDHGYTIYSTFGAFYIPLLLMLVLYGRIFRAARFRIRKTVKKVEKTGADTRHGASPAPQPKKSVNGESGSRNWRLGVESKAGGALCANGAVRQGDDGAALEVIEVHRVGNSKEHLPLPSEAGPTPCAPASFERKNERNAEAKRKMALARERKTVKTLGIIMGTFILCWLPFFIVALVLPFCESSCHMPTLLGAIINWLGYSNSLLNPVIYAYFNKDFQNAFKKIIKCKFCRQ

[10] = target: T7, 5-HT1E (Homo sapiens, UniProt P28566); assay: NIMH-PDSP radioligand binding assay, 5-HT1E
T7 construct: NIMH-PDSP
T7 sequence (P28566 whole entry, species assumed): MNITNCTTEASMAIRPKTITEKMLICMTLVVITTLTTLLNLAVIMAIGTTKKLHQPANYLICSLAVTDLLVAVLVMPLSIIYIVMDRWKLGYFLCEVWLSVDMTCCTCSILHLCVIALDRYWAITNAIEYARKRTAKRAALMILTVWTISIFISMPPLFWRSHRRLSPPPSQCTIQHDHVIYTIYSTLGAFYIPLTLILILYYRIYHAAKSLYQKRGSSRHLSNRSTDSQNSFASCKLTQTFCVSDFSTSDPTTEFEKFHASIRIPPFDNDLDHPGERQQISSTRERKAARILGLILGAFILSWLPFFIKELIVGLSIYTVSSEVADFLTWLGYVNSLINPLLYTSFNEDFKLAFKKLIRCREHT
Protocol: as §1

[11] = target: T8, D3R (Homo sapiens, UniProt P35462); assay: NIMH-PDSP radioligand binding assay, D3R
T8 construct: NIMH-PDSP
T8 sequence (P35462 whole entry): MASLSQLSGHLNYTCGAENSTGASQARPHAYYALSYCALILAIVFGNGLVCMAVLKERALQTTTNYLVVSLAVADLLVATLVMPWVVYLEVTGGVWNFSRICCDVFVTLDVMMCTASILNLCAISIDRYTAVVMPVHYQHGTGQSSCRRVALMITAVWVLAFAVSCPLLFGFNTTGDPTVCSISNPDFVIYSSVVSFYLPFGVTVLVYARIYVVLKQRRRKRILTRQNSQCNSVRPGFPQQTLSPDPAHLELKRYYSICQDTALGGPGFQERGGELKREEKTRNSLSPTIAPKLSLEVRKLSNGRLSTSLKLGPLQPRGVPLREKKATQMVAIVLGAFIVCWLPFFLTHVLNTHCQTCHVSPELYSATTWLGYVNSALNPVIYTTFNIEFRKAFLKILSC
Protocol: as §1

[12] = target: T9, Alpha 2A (Homo sapiens, UniProt P08913); assay: NIMH-PDSP radioligand binding assay, Alpha 2A
T9 construct: NIMH-PDSP
T9 sequence (P08913 whole entry): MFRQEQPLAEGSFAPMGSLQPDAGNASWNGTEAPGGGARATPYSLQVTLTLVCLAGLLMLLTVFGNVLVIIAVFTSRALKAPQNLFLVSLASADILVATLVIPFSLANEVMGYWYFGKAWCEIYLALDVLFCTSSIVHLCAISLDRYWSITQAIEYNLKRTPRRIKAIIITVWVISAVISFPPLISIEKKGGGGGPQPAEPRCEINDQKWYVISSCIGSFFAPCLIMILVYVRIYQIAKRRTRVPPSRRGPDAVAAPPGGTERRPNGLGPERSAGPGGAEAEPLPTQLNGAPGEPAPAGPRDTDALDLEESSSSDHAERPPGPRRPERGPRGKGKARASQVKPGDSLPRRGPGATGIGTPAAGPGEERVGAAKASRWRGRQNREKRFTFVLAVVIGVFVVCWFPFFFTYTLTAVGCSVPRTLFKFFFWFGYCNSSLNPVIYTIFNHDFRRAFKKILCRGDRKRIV

[13] = target: T10, D4R (Homo sapiens, UniProt P21917); assay: NIMH-PDSP radioligand binding assay, D4R
T10 construct: NIMH-PDSP
T10 sequence (P21917 1-419): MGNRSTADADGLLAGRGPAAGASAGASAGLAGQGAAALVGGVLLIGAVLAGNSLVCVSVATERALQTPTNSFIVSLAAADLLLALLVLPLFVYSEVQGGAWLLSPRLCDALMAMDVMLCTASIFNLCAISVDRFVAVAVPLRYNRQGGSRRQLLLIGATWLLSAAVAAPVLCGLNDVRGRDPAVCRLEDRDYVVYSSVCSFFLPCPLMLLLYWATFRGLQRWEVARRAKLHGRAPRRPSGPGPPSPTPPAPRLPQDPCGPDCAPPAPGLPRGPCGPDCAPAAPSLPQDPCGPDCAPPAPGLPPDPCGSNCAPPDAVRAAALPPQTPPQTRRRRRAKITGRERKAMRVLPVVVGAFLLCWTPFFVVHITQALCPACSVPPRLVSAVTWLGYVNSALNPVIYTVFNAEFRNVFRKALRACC
Protocol: as §1

[14] = target: H1-H4; assay: NIMH-PDSP radioligand binding assay, H1-H4
[15] = target: T11, NOP (Homo sapiens, UniProt P41146); assay: NIMH-PDSP radioligand binding assay, NOP
T11 construct: NIMH-PDSP
T11 sequence (P41146 whole entry): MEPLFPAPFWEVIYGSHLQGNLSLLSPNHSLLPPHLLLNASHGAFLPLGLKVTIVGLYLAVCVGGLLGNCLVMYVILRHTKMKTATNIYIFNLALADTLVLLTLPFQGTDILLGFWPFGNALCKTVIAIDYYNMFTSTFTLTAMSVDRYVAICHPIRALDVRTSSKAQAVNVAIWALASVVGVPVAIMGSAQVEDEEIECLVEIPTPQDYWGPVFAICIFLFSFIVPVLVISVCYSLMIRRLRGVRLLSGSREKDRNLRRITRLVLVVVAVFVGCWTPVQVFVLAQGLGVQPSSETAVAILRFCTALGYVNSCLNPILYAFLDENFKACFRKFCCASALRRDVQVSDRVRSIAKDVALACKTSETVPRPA
Protocol: as §1

[16] = target: T12, Alpha1D (Homo sapiens, UniProt P25100); assay: NIMH-PDSP radioligand binding assay, Alpha1D
T12 construct: NIMH-PDSP
T12 sequence (P25100 whole entry): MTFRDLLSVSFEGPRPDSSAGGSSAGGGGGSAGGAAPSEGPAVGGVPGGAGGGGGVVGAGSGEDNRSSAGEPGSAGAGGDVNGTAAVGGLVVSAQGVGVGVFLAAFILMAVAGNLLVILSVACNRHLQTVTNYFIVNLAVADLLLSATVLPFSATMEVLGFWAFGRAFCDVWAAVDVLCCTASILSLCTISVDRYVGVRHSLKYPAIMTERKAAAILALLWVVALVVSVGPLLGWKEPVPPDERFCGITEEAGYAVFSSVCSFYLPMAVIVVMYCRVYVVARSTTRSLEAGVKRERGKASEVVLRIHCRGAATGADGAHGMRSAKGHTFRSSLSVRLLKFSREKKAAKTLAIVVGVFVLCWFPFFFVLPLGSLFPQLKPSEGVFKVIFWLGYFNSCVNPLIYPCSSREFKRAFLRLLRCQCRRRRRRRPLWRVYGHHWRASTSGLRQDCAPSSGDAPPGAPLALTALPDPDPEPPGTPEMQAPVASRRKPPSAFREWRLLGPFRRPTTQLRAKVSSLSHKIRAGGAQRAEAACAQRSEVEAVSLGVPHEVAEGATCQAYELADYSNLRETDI

[17] = target: T13, 5-HT5a (Homo sapiens, UniProt P47898); assay: NIMH-PDSP radioligand binding assay, 5-HT5a
T13 construct: NIMH-PDSP
Protocol: as §1

[18] = target: T14, 5-HT3 (Homo sapiens, UniProt P46098); assay: NIMH-PDSP radioligand binding assay, 5-HT3
T14 construct: NIMH-PDSP
T14 sequence (P46098 24-478): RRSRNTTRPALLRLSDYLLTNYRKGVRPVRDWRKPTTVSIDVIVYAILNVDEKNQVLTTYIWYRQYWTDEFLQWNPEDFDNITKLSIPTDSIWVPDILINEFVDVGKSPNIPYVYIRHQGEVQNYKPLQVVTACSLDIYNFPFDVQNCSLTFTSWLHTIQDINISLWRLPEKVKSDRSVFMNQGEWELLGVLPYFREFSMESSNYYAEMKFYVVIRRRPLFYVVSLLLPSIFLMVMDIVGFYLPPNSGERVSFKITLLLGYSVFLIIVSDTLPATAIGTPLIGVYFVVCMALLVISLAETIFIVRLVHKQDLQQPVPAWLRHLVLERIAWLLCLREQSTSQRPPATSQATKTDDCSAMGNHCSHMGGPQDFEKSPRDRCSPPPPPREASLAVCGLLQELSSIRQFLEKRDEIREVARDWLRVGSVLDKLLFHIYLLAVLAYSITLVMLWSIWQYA
Protocol: as §1

[19] = target: T15, Alpha1B (Homo sapiens, UniProt P35368); assay: NIMH-PDSP radioligand binding assay, Alpha1B
T15 construct: NIMH-PDSP

[20] = target: T16, 5-HT6 (Homo sapiens, UniProt P50406); assay: NIMH-PDSP radioligand binding assay, 5-HT6
T16 construct: NIMH-PDSP
T16 sequence (P50406 whole entry, species assumed): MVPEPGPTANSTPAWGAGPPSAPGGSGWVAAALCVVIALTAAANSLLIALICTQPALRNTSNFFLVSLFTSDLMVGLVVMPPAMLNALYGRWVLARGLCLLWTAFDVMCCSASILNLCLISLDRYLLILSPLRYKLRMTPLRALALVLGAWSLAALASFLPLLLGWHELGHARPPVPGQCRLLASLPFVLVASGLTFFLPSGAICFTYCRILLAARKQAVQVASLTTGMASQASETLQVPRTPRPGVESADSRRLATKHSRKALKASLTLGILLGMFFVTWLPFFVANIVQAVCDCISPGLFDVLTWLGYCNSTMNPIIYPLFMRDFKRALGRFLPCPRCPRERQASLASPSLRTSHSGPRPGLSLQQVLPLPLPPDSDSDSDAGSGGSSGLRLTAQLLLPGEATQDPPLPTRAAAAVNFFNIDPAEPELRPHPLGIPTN
Protocol: as §1

[21] = target: T17, PBR (Rattus norvegicus, UniProt P16257); assay: NIMH-PDSP radioligand binding assay, PBR
T17 construct: NIMH-PDSP
Protocol: as §1

[22] = target: T18, Sigma1R (Homo sapiens, UniProt Q99720); assay: NIMH-PDSP radioligand binding assay, Sigma1R
T18 construct: NIMH-PDSP
T18 sequence (Q99720 whole entry, species assumed): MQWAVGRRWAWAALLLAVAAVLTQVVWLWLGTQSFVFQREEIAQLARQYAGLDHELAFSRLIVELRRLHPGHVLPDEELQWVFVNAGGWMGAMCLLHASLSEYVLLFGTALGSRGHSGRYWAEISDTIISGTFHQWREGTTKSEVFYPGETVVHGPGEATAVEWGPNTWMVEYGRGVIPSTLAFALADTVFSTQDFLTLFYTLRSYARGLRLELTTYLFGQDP
Protocol: as §1

[23] = target: CB1, CB2; assay: NIMH-PDSP radioligand binding assay, CB1, CB2
[24] = target: T19, Alpha1A (Homo sapiens, UniProt P35348); assay: NIMH-PDSP radioligand binding assay, Alpha1A; details: text b29 calls it α1-adrenergic receptors
T19 construct: NIMH-PDSP

[25] = target: T20, Alpha2B (Homo sapiens, UniProt P18089); assay: NIMH-PDSP radioligand binding assay, Alpha2B
T20 construct: NIMH-PDSP
T20 sequence (P18089 whole entry): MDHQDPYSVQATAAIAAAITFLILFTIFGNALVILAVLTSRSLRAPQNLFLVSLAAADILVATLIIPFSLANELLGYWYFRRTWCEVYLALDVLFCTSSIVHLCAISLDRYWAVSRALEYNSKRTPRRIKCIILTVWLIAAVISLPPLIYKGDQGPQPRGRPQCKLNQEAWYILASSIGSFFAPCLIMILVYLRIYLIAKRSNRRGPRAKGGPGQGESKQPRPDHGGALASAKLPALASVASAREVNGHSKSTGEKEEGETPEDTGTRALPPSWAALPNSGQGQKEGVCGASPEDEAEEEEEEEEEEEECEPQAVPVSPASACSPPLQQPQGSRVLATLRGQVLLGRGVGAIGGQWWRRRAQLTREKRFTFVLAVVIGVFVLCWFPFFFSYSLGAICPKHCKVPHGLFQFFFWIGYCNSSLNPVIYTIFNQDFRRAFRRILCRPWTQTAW

T1 sequence (P28222 whole entry, species assumed): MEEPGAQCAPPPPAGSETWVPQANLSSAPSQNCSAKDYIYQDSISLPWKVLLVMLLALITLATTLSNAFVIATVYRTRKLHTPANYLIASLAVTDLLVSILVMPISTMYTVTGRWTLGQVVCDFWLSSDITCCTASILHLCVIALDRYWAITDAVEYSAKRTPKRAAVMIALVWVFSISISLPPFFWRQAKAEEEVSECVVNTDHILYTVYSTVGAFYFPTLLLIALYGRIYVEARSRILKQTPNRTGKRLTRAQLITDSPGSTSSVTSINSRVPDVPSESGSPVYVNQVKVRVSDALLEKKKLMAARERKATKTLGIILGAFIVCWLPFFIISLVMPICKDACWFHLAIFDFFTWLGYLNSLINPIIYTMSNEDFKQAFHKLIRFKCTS

Row | Compound | Ki [1] | Ki [2] | Ki [3] | affinity to 5-HT2A [4] | Ki [5] | Ki [6] | Ki [7] | Ki [8] | Ki [9] | Binding affinity ratios of 5-HT1A and α1-adrenergic receptors [9] | Ki [10] | Ki [11] | Ki [12] | Ki [13] | Ki [14] | Ki [15] | Ki [16] | Ki [17] | Ki [18] | Ki [19] | also measured
1 | COc1ccccc1N1CCN(CCCN/C(=N\C#N)c2ccccn2)CC1 [Compound 1] | > 10 µM | > 10 µM | > 10 µM | high affinities | > 10 µM | 0.403 µM | > 10 µM | > 10 µM | 0.022 µM | ~ 6 | > 10 µM | 0.369 µM | 0.453 µM | 0.137 µM | > 10 µM | > 10 µM | 0.213 µM | > 10 µM | > 10 µM | 1.08 µM | Ki [20]: > 10 µM; Ki [21]: > 10 µM; Ki [22]: 0.52 µM; Ki [23]: > 10 µM; Ki [24]: 0.129 µM; Ki [25]: 0.67 µM
2 | COc1ccccc1N1CCN(CCNC(=O)c2ccccn2)CC1 [Compound 2] | > 10 µM | > 10 µM | > 10 µM | high affinities | > 10 µM | 0.516 µM | > 10 µM | > 10 µM | 0.0077 µM | ~ 6 | > 10 µM | 2.55 µM | > 10 µM | 0.088 µM | > 10 µM | > 10 µM | 0.053 µM | > 10 µM | > 10 µM | 0.254 µM | Ki [20]: > 10 µM; Ki [21]: > 10 µM; Ki [22]: > 10 µM; Ki [23]: > 10 µM; Ki [24]: 0.046 µM; Ki [25]: > 10 µM
